Results: patent publication US6878722B2, “Substituted cycloalkyl P1′ hepatitis C virus inhibitors” (Bristol-Myers Squibb Company, priority 2002, dated 2005)

Assays:
[1] = target: T1, HCV NS3/4A protease complex (BMS strain, genotype 1a) (Hepatitis C virus genotype 1a, UniProt P27958, C1454S); assay: Recombinant HCV NS3/4A protease complex FRET peptide assay, BMS strain; assay type: biochemical; details: IC50 range, NS3/4A BMS Strain
T1 construct: DNA encoding the recombinant HCV NS3/4A protease complex (amino acids 1027 to 1711) for these strains; inferred from the pET21b vector and Ni-NTA purification; made in house; host or cells: Escherichia coli BL21 (DE3), pET21b
T1 sequence (P27958 1658-1714, looked up, stated change not applied): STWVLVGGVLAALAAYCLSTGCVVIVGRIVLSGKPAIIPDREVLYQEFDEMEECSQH
T1 sequence (P27958 1027-1657, looked up, stated change not applied): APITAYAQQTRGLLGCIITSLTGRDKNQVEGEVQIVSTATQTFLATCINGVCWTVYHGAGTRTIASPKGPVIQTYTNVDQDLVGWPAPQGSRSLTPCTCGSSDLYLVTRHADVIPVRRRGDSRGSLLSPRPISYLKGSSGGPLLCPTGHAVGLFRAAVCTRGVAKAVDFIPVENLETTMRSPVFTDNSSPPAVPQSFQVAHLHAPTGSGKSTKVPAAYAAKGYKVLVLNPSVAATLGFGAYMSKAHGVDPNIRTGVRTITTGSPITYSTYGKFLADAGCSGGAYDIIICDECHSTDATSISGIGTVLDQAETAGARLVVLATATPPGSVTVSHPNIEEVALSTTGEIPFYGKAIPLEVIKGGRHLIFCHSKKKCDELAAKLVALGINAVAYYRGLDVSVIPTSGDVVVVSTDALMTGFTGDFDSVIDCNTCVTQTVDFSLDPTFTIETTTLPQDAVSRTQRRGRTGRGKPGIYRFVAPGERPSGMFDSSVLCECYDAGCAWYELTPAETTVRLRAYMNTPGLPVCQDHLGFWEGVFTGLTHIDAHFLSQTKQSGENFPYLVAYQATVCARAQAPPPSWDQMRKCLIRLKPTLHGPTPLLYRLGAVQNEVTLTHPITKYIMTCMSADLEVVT
From the text: The purpose of this in vitro assay was to measure the inhibition of HCV NS3 protease complexes, derived from the BMS, H77C or J416S strains, as described below, by compounds of the present invention.
Serum from an HCV-infected patient was obtained from Dr. T. Wright, San Francisco Hospital. An engineered full-length cDNA (compliment deoxyribonucleic acid) template of the HCV genome (BMS strain) was constructed from DNA fragments obtained by reverse transcription-PCR (RT-PCR) of serum RNA (ribonucleic acid) and using primers selected on the basis of homology between other genotype 1a strains. […] The infectious clones, H77C (1a genotype) and J4L6S (1b genotype) were obtained from R. Purcell (NIH) and the sequences are published in Genbank (AAB67036, see Yanagi,M., Purcell,R. H., Emerson,S. U. and Bukh,J. Proc. Natl. Acad. Sci. U.S.A. 94(16),8738-8743 (1997); AF054247, see Yanagi,M., St Claire,M., Shapiro,M., Emerson,S. U., Purcell,R. H. and Bukh,J, Virology 244 (1), 161-172. (1998)).
The BMS, H77C and J4L6S strains were used for production of recombinant NS3/4A protease complexes. DNA encoding the recombinant HCV NS3/4A protease complex (amino acids 1027 to 1711) for these strains were manipulated as described by P. Gallinari et al. (see Gallinari P, Paolini C, Brennan D, Nardi C, Steinkuhler C, De Francesco R. Biochemistry. 38(17):5620-32, (1999)). Briefly, a three-lysine solubilizing tail was added at the 3′-end of the NS4A coding region. The cysteine in the P1 position of the NS4A-NS4B cleavage site (amino acid 1711) was changed to a glycine to avoid the proteolytic cleavage of the lysine tag. Furthermore, a cysteine to serine mutation was introduced by PCR at amino acid position 1454 to prevent the autolytic cleavage in the NS3 helicase domain. The variant DNA fragment was cloned in the pET21b bacterial expression vector (Novagen) and the NS3/4A complex was expressed in Escherichia. coli strain BL21 (DE3) (Invitrogen) following the protocol described by P. Gallinari et al. (see Gallinari P, Brennan D, Nardi C, Brunetti M, Tomei L, Steinkuhler C, De Francesco R., J. Virol. 72(8):6758-69 (1998)) with modifications. Briefly, NS3/4A expression was induced with 0.5 mM Isopropyl β-D-1-thiogalactopyranoside (IPTG) for 22 hr at 20° C. […] The cells were resuspended in lysis buffer (10 mL/g) consisting of 25 mM N-(2-Hydroxyethyl)Piperazine-N′-(2-Ethane Sulfonic acid) (HEPES), pH 7.5, 20% glycerol, 500 mM Sodium Chloride (NaCl), 0.5% Triton-X100, 1 ug/ml lysozyme, 5 mM Magnesium Chloride (MgCl2), 1 ug/ml DnaseI, 5 mM β-Mercaptoethanol (βME), Protease inhibitor—Ethylenediamine Tetraacetic acid (EDTA) free (Roche), homogenized and incubated for 20 mins at 4° C. The homogenate was sonicated and clarified by ultra-centrifugation at 235000 g for 1 hr at 4° C. Imidazole was added to the supernatant to a final concentration of 15 mM and the pH adjusted to 8.0. The crude protein extract was loaded on a Nickel-Nitrilotriacetic acid (Ni-NTA) column pre-equilibrated with buffer B (25 mM HEPES, pH 8.0, 20% glycerol, 500 mM NaCl, 0.5% Triton-X100, 15 mM imidazole, 5 mM βME). The sample was loaded at a flow rate of 1 mL/min. The column was washed with 15 column volumes of buffer C (same as buffer B except with 0.2% Triton-X100). The protein was eluted with 5 column volumes of buffer D (same as buffer C except with 200 mM Imidazole).
NS3/4A protease complex-containing fractions were pooled and loaded on a desalting column Superdex-S200 pre-equilibrated with buffer D (25 mM HEPES, pH7.5, 20% glycerol, 300 mM NaCl, 0.2% Triton-X100, 10 mM βME).

[2] = test system: HCV replicon in Huh7 cells; assay: HCV replicon cell-based assay (FRET); details: Hepatitis C virus, Huh-7; HCV replicon; read-out: EC50 range
From the text: An HCV replicon whole cell system was established as described by Lohmann V, Korner F, Koch J, Herian U, Theilmann L, Bartenschlager R., Science 285(5424):110-3 (1999). This system enabled us to evaluate the effects of our HCV Protease compounds on HCV RNA replication. Briefly, using the HCV strain 1B sequence described in the Lohmann paper (Assession number: AJ238799), an HCV cDNA was generated encoding the 5′ internal ribosome entry site (IRES), the neomycin resistance gene, the EMCV (encephalomyocarditis viurs)-IRES and the HCV nonstructural proteins, NS3-NS5B, and 3′ non-translated region (NTR). In vitro transcripts of the cDNA were transfected into the human hepatoma cell line, Huh7. […] Resulting cell lines were characterized for positive and negative strand RNA production and protein production over time.
Huh7 cells, constitutively expressing the HCV replicon, were grown in Dulbecco's Modified Eagle Media (DMEM) containing 10% Fetal calf serum (FCS) and 1 mg/ml G418 (Gibco-BRL). Cells were seeded the night before (1.5×10^4 cells/well) in 96-well tissue-culture sterile plates. Compound and no compound controls were prepared in DMEM containing 4% FCS, 1:100 Penicillin/Streptomysin, 1:100 L-glutamine and 5% DMSO in the dilution plate (0.5% DMSO final concentration in the assay). Compound/DMSO mixes were added to the cells and incubated for 4 days at 37° C. After 4 days, plates were rinsed thoroughly with Phosphate-Buffered Saline (PBS) (3 times 150 μl). The cells were lysed with 25 μl of a lysis assay reagent containing the FRET peptide (RET S1, as described for the in vitro enzyme assay). The lysis assay reagent was made from 5× cell Luciferase cell culture lysis reagent(Promega #E153A) diluted to 1× with distilled water, NaCl added to 150 mM final, the FRET peptide diluted to 10 μM final from a 2 mM stock in 100% DMSO. The plate was then placed into the Cytofluor 4000 instrument which had been set to 340 nm excitation/490 emission, automatic mode for 21 cycles and the plate read in a kinetic mode. EC50 determinations were carried out as described for the IC50 determinations.

| Compound | IC50 [1] [nM] | EC50 [2] [nM] |
| --- | --- | --- |
| CCCC1(S(=O)(=O)NC(=O)C2(NC(=O)[C@@H]3C[C@@H](Oc4cc(-c5ccccc5)nc5cc(OC)ccc45)CN3C(=O)[C@@H](NC(=O)OC(C)(C)C)C(C)(C)C)CC23CC3)CC1 (mixture of isomers) [Compound 200, (1-{4-(7-Methoxy-2-phenyl-quinolin-4-yloxy)-2-[1-(1-propyl-cyclopropane-sulfonylaminocarbonyl)-spiro[2.2]pent-1-ylcarbamoyl]-pyrrolidine-1-carbonyl}-2,2-dimethyl-propyl)-carbamic acid tert-butyl ester] | 50 to 500 | 500 to 5000 |
| COc1ccc2c(O[C@@H]3C[C@@H](C(=O)NC4(C(=O)NS(=O)(=O)C5(Cc6ccccc6)CC5)CC45CC5)N(C(=O)[C@@H](NC(=O)OC(C)(C)C)C(C)(C)C)C3)cc(-c3ccccc3)nc2c1 (mixture of isomers) [Compound 201, {1-[2-[1-(1-Benzyl-cyclopropanesulfonylaminocarbonyl)-spiro[2.2]pent-1-ylcarbamoyl]-4-(7-methoxy-2-phenyl-quinolin-4-yloxy)-pyrrolidine-1-carbonyl]-2,2-dimethyl-propyl}-carbamic acid tert-butyl ester] | 500 to 5000 | 5000 to 50000 |
| COc1ccc2c(O[C@@H]3C[C@@H](C(=O)NC4(C(=O)NS(=O)(=O)C5(CC6CC6)CC5)CC45CC5)N(C(=O)[C@@H](NC(=O)OC(C)(C)C)C(C)(C)C)C3)cc(-c3ccccc3)nc2c1 (mixture of isomers) [Compound 202, {1-[2-[1-(1-Cyclopropylmethyl-cyclopropanesulfonylaminocarbonyl)-spiro[2.2]pent-1-ylcarbamoyl]-4-(7-methoxy-2-phenyl-quinolin-4-yloxy)-pyrrolidine-1-carbonyl]-2,2-dimethyl-propyl}-carbamic acid tert-butyl ester] | 50 to 500 | 500 to 5000 |
| C=CC1C[C@]1(NC(=O)[C@@H]1C[C@@H](Oc2cc(-c3ccccc3)nc3cc(OC)ccc23)CN1C(=O)[C@@H](NC(=O)OC(C)(C)C)C(C)(C)C)C(=O)NS(=O)(=O)C1(C2=CCCCC2)CC1 (stereo in doubt) [Compound 3, {1-[2-[1-(1-Cyclohex-1-enyl-cyclopropanesulfonylaminocarbonyl)-2-vinylcyclopropylcarbamoyl]-4-(7-methoxy-2-phenyl-quinolin-4-yloxy)pyrrolidine-1-carbonyl]-2,2-dimethylpropyl}carbamic acid tert-butyl ester] | 50 to 500 | 50 to 500 |
| C=CC1C[C@]1(NC(=O)[C@@H]1C[C@@H](Oc2cc(-c3ccccc3)nc3cc(OC)ccc23)CN1C(=O)[C@@H](NC(=O)OC(C)(C)C)C(C)(C)C)C(=O)NS(=O)(=O)C1(C(=O)c2ccccc2)CC1 (stereo in doubt) [Compound 4, {1-[2-[1-(1-Benzoylcyclopropanesulfonyl-aminocarbonyl)-2-vinyl-cyclopropylcarbamoyl]-4-(7-methoxy-2-phenylquinolin-4-yloxy)-pyrrolidine-1-carbonyl]-2,2-dimethylpropyl}-carbamic acid tert-butyl ester] | 50 to 500 | 50 to 500 |
| C=CC1C[C@]1(NC(=O)[C@@H]1C[C@@H](Oc2cc(-c3ccccc3)nc3cc(OC)ccc23)CN1C(=O)[C@@H](NC(=O)OC(C)(C)C)C(C)(C)C)C(=O)NS(=O)(=O)C1(Cc2ccccc2)CC1 (stereo in doubt) [Compound 5, {1-[2-[1-(1-Benzylcyclopropanesulfonyl-aminocarbonyl)-2-vinyl-cyclopropylcarbamoyl]-4-(7-methoxy-2-phenylquinolin-4-yloxy)-pyrrolidine-1-carbonyl]-2,2-dimethylpropyl}-carbamic acid tert-butyl ester] | < 50 | < 50 |
| C=CC1C[C@]1(NC(=O)[C@@H]1C[C@@H](Oc2cc(-c3ccccc3)nc3cc(OC)ccc23)CN1C(=O)[C@@H](NC(=O)OC(C)(C)C)C(C)(C)C)C(=O)NS(=O)(=O)C1(C(=O)Nc2ccccc2)CC1 (stereo in doubt) [Compound 6, (1-{4-(7-Methoxy-2-phenyl-quinolin-4-yloxy)-2-[1-(1-phenylcarbamoyl-cyclopropane-sulfonylaminocarbonyl)-2-vinylcyclopropylcarbamoyl]-pyrrolidine-1-carbonyl}-2,2-dimethyl-propyl)carbamic acid tert-butyl ester] | < 50 | 50 to 500 |
| C=CC1C[C@]1(NC(=O)[C@@H]1C[C@@H](Oc2cc(-c3ccccc3)nc3cc(OC)ccc23)CN1C(=O)[C@@H](NC(=O)OC(C)(C)C)C(C)(C)C)C(=O)NS(=O)(=O)C1(C(=O)NCCC)CC1 (stereo in doubt) [Compound 9, (1-{4-(7-Methoxy-2-phenylquinolin-4-yloxy)-2-[1-(1-propylcarbamoyl-cyclopropanesulfonylaminocarbonyl)-2-vinylcyclopropylcarbamoyl]pyrrolidine-1-carbonyl}-2,2-dimethyl-propyl)carbamic acid tert-butyl ester] | < 50 | < 50 |
| COc1ccc2c(O[C@@H]3C[C@@H](C(=O)NC4(C(=O)NS(=O)(=O)C5(C(=O)c6ccccc6)CC5)CC4)N(C(=O)[C@@H](NC(=O)OC(C)(C)C)C(C)(C)C)C3)cc(-c3ccccc3)nc2c1 [Compound 73] | 500 to 5000 |  |
| C=C[C@@H]1C[C@]1(NC(=O)[C@@H]1C[C@@H](Oc2cc(-c3ccccc3)nc3cc(OC)ccc23)CN1C(=O)[C@@H](NC(=O)O[C@@H]1C[C@H](C)CC[C@H]1C(C)C)C(C)(C)C)C(=O)NS(=O)(=O)C1(Cc2ccccc2)CC1 [Compound 109] | 500 to 5000 |  |
| C=C[C@@H]1C[C@]1(NC(=O)[C@@H]1C[C@@H](Oc2cc(-c3ccccc3)nc3cc(OC)ccc23)CN1C(=O)[C@@H](NC(=O)[C@@H]1COc2ccccc2O1)C(C)(C)C)C(=O)NS(=O)(=O)C1(Cc2ccccc2)CC1 [Compound 113] | 500 to 5000 |  |
